The subject of data set [1] is NCI-H460. Put plainly: Antiproliferative (cytotoxicity) test, sulforhodamine B, NCI-H460 cells. The data set is classed as cell-based, human. The source says: The cytotoxic activity of the compounds according to the present invention has been assayed in cell systems of human tumour cells, using the antiproliferative activity test as the method of evaluating the cytotoxic potential.
The cell line used is a non-microcytoma pulmonary adenocarcinoma called NCI H460, belonging to the NSCLC (non small cell lung cancer) class.
To evaluate the effect of the compounds according to the present invention, their cytotoxocity against the non-microcytoma lung cancer cell line (NCI-H460) was evaluated. Cells from the American Type Culture Collection (ATCC) were maintained in culture in RPMI 1640 (GIBCO) containing 10% foetal calf serum and gentamicin sulphate at a concentration of 50 µg/ml.
The cells were seeded in a volume of 250 μl in 96-well plates and incubated for 24 h at 37° C. The next day the study compounds were added at scalar concentrations from 1 μM to 0.004 μM, and the cells were incubated for another 2 h at 37° C. in a humidified atmosphere containing 5% CO2. The cells were washed 3 times, overturning the plates each time and adding PBS. 200 μl/well of RPMI 1640 medium containing 10% FCS were added and the plates were incubated at 37° C. for a further 72 h. On day 5, the growth medium was removed by overturning the plates, and 200 μl/well of PBS and 50 μl of 80% cold TCA were added. The plates were then incubated in ice for at least 1 h. The TCA was removed by overturning; the plates were washed 3 times by immersion in distilled water and dried first on blotting paper and then under a hot air jet. 200 μl of 0.4% sulforodamine B in 1% acetic acid were added to all wells. The plates were incubated at room temperature for a further 30 minutes. The sulforodamine B was removed by overturning; the plates were washed by immersion 3 times in 1% acetic acid and then dried first on blotting paper and then with a jet of hot air. 200 μl of Tris base 10 mM were added to all wells and the plates were subjected to stirring for at least 20 minutes. The optical density was measured using a Multiskan spectrophotometer at 540 nm.
Table 1 presents the IC50 values, that is to say the concentration capable of inhibiting 50% of cell survival, for each compound examined, processed using ALLFIT software.

Setting [2] is: 2 h exposure, 72 h recovery, sulforodamine B, concentration inhibiting 50% of cell survival, read-out: NCI-H460 IC50.

This is an account of results in patent US7273873B2, “Camptothecins with a modified lactone ring” (Sigma-Tau Industrie Farmaceutiche Riunite S.p.A., priority 2002, dated 2007).

Where two headings read alike, the source gives them in different places.

By IC50 is commonly meant the concentration that inhibits the measured activity by half. For `CCC1(CC(=O)O)OC(=O)c2c1cc1n(c2=O)Cc2cc3ccccc3nc2-1` (centres unmarked) [ST2085, (3-ethyl-1,13-dioxo-11,13-dihydro-1H,3H-furor[3′,4′:6,7]indolizino[1,2-b]quinolin-3-yl)acetic acid], the IC50 in data set [1] (setting [2]) was above 1000 nM. The same measure, in the same setting: the result for `CCC1(O)CC(=O)OCc2c1cc1n(c2=O)Cc2c-1nc1ccccc1c2C=NOC(C)(C)C` (centres unmarked) [ST2127, R,S-7-(1-t-butoxy)iminomethyl-homocamptothecin] reads 26 nM; that for `CCC1(O)CC(=O)OCc2c1cc1n(c2=O)Cc2c-1nc1ccccc1c2/C=N/OCc1ccccc1` (centres unmarked) [ST2143, R,S-7-benzyloxyiminomethyl-homocamptothecin], 7 nM.

In the case of `CCC1(O)CC(=O)OCc2c1cc1n(c2=O)Cc2c-1nc1ccccc1c2C=NOC(C)(C)C` (centres unmarked) [ST2523], the half-maximal inhibitory concentration (IC50) in data set [1] (H460 cells, isolated enantiomers of ST2127, read-out: IC50 (H460)) is above 200 nM. On to `CCC1(CC(=O)OC(C)(C)C)OC(=O)c2c1cc1n(c2=O)Cc2cc3ccccc3nc2-1` (centres unmarked) [ST2084, Ter-butyl ester of (3-ethyl-1,13-dioxo-11,13-dihydro-1H,3H-furo[3′,4′:6,7]indolizino[1,2-b]quinolin-3-yl)acetic acid], for which the IC50 in data set [1] (setting [2]) is above 1000 nM. On the same count and under the same terms, the result for `CCC1(CC(=O)O)OC(=O)c2c1cc1n(c2=O)Cc2c-1nc1ccccc1c2/C=N/OC(C)(C)C` (centres unmarked) [ST2196, {10-[(E)-(ter-butoxyimino)methyl]-3-ethyl-1,13-dioxo-11,13-dihydro-1H,3H-furo[3′,4′:6.7]indolizino[1,2-b]quinolin-3-yl} acetic acid] reads above 1000 nM. One may read the melting point as the temperature, or range, at which the solid turns liquid. On to `CCC1(CC(=O)O)OC(=O)c2c1cc1n(c2=O)Cc2c-1nc1ccccc1c2/C=N/OCc1ccccc1` (centres unmarked) [ST2285, (10-{(E)-[(benzyloxy)imino]methyl}-3-ethyl-1,13-dioxo-11,13-dihydro-1H,3H-furo[3′,4′:6,7]indolizino[1,2-b]quinolin-3-yl)-acetic acid], for which the melting point was 188 °C (dec.). In addition, the IC50 in data set [1] (Homo sapiens, NCI-H460, 2 h exposure, 72 h recovery, sulforodamine B, concentration inhibiting 50% of cell survival, read-out: NCI-H460 IC50) was above 1000 nM.
